The assay has as its target fully phosphorylated, mouse aERK2 enzyme (Mus musculus (Mouse), UniProt P63085). As to the kind of experiment: Active ERK2 (aERK) IMAP-FP assay, condition 2. Type of assay: biochemical. In a few lines:
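Phosphorylation by fully phosphorylated mouse ERK2 ran 40-45 min, then quenched with IMAP beads (1:1000) in binding buffer; fluorescence polarization read after 30 min binding equilibration.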

[1] abbreviates: active ERK2, read-out: aErk2 Ic50.
Where [2] appears, read: aERK assay condition 2, 30 uM ATP, read-out: aERK IC50.

Read-outs that look alike come from different tables or passages of the source.

Chain of fully phosphorylated, mouse aERK2 enzyme (P63085 whole entry): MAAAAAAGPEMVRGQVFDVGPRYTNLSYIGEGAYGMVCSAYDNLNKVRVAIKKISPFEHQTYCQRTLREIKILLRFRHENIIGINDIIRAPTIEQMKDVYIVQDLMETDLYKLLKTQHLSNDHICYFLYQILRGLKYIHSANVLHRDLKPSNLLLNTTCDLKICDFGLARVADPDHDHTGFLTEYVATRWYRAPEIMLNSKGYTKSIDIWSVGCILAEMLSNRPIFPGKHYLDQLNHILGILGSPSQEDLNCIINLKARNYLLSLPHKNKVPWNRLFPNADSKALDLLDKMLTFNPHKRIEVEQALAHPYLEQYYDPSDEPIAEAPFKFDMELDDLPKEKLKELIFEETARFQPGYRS

Broadly, the IC50 is the point on the concentration scale where inhibition reaches its midpoint. As to `COc1cccc(F)c1CN1C[C@H](NC(=O)c2ccc3[nH]nc(-c4ccnc(C)c4)c3c2)CC[C@H]1C(=O)N1CCN(C(=O)OC(C)(C)C)CC1` [tert-butyl 4-{[(2S,5R)-1-(2-fluoro-6-methoxy-benzyl)-5-({[3-(2-methylpyridin-4-yl)-1H-indazol-5-yl]carbonyl}amino)piperidin-2-yl]carbonyl}piperazine-1-carboxylate], the 50% inhibitory concentration (IC50) under setting [1] was 7 nM. As for `COc1cccc(F)c1CN1C[C@H](NC(=O)c2ccc3[nH]nc(-c4ccc5nn(C)cc5c4)c3c2)CC[C@H]1C(=O)Nc1nccs1`, the IC50 under setting [1] came to 113 nM. As for `COc1ccnc(NC(=O)[C@@H]2CC[C@@H](NC(=O)c3ccc4[nH]nc(-c5ccnc(C)c5)c4c3)CN2Cc2c(F)cccc2OC)c1` [N-{(3R,6S)-1-(2-fluoro-6-methoxybenzyl)-6-[(4-methoxypyridin-2-yl)carbamoyl]piperidin-3-yl}-3-(2-methylpyridin-4-yl)-1H-indazole-5-carboxamide], under setting [2], the half-maximal inhibitory concentration (IC50) worked out at 50.2 nM. Consider `CCN(CC)C(=O)[C@@H]1CC[C@@H](NC(=O)c2ccc3[nH]nc(-c4ccnc(C)c4)c3c2)CN1CCc1ccccc1` [N-[(3R,6S)-6-(diethylcarbamoyl)-1-(2-phenylethyl)piperidin-3-yl]-3-(2-methylpyridin-4-yl)-1H-indazole-5-carboxamide], for which the IC50 under setting [1] was determined as 158 nM. Take `COc1cccc(F)c1CN1C[C@H](NC(=O)c2ccc3[nH]nc(-c4ccnc(C)c4)c3c2)CC[C@H]1C(=O)Nc1nccs1` [N-[(3R,6S)-1-(2-fluoro-6-methoxybenzyl)-6-(1,3-thiazol-2-ylcarbamoyl)piperidin-3-yl]-3-(2-methylpyridin-4-yl)-1H-indazole-5-carboxamide]: the IC50 under setting [2] turned out to be 14 nM. `[2H]C([2H])([2H])Oc1cccc(F)c1CN1C[C@H](NC(=O)c2ccc3[nH]nc(-c4ccc5nc(C)sc5c4)c3c2)CC[C@H]1C(=O)N1CCN(C(=O)OC(C)(C)C)CC1`: under setting [1], the IC50 was determined as 72.8 nM.

As to `COc1cccc(F)c1CN1C[C@H](NC(=O)c2ccc3[nH]nc(-c4ccnc(C)c4)c3c2)CC[C@H]1C(=O)N(C)C1CC1` [N-[(3R,6S)-6-[cyclopropyl(methyl)carbamoyl]-1-(2-fluoro-6-methoxybenzyl)piperidin-3-yl]-3-(2-methylpyridin-4-yl)-1H-indazole-5-carboxamide], under setting [2], the IC50 is 2.5 nM. As for `COc1cccc(F)c1CN1C[C@H](NC(=O)c2ccc3[nH]nc(-c4ccnc(C)c4)c3c2)CC[C@H]1C(=O)N1CCOCC1` [N-[(3R,6S)-1-(2-fluoro-6-methoxybenzyl)-6-(morpholin-4-ylcarbonyl)piperidin-3-yl]-3-(2-methylpyridin-4-yl)-1H-indazole-5-carboxamide], under setting [1], the half-inhibitory concentration (IC50) is 18.2 nM. As for `COc1cccc(F)c1CN1C[C@H](NC(=O)c2ccc3[nH]nc(-c4ccnc(C)c4)c3c2)CC[C@H]1C(=O)Nc1ccc(F)cc1` [N-{(3R,6S)-1-(2-fluoro-6-methoxybenzyl)-6-[(4-fluorophenyl)carbamoyl]piperidin-3-yl}-3-(2-methylpyridin-4-yl)-1H-indazole-5-carboxamide], the IC50 under setting [2] was 23.4 nM. `COc1cccc(F)c1CN1C[C@H](NC(=O)c2ccc3[nH]nc(-c4ccnc(C)c4)c3c2)CC[C@H]1C(=O)N1CCCCO1` [N-[(3R,6S)-1-(2-fluoro-6-methoxybenzyl)-6-(1,2-oxazinan-2-ylcarbonyl)piperidin-3-yl]-3-(2-methylpyridin-4-yl)-1H-indazole-5-carboxamide]: the IC50 under setting [1] was 9.6 nM. Consider `COc1cccc(F)c1CN1C[C@H](NC(=O)c2ccc3[nH]nc(-c4ccnc(C)c4)c3c2)CC[C@H]1C(=O)NN` [N-[(3R,6S)-1-(2-fluoro-6-methoxybenzyl)-6-(hydrazinocarbonyl)piperidin-3-yl]-3-(2-methylpyridin-4-yl)-1H-indazole-5-carboxamide], for which the IC50 under setting [1] worked out at 1 nM. Regarding `NC(=O)C(c1c(F)cccc1F)N1CCC[C@@H](NC(=O)c2ccc3[nH]nc(-c4ccncc4)c3c2)C1` (single isomer, unassigned) [drawing 503, N-((R)-1-((R or S)-2-amino-1-(2,6-difluorophenyl)-2-oxoethyl)piperidin-3-yl)-3-(pyridin-4-yl)-1H-indazole-5-carboxamide], under setting [2], the 50% inhibitory concentration (IC50) is 222 nM.

Source of the values: patent US8999957B2, “Heterocyclic compounds as ERK inhibitors” (Merck Sharp & Dohme Corp., priority 2010, dated 2015).
